Measured values published in paper PMC12249509, “Quinazoline Derivative kzl052 Suppresses Prostate Cancer by Targeting WRN Helicase to Stabilize DNA Replication Forks” (International Journal of Molecular Sciences, 2025).

How the values were obtained:
[1] = tested on: normal human liver cells LX2; test: MTT normal cytotoxicity, LX2; assay type: cell-based; settings: mean ± SD, n = 3
Protocol: (§1) Cell suspensions were prepared in a logarithmic growth phase and seeded in 96-well plates at a density of 5000–8000 cells/well for 12 h and treated with different concentrations of kzl052 for 48 h. A 5 mg/mL MTT dye solution (Solarbio, Beijing, China) was added to all cells at 37 °C for 4 h. Then DMSO was added after removing the supernatant, and the crystals were completely dissolved by shaking at 37 °C for 15 min. The absorbance was measured at 490 nm by a microplate reader (Gene, HongKong, China). The cell proliferation inhibition rate was calculated according to the following formula: (1-experimental group OD/control group OD) × 100% with DMSO as a negative control and the WRN inhibitor (NSC 617145, GLPBIO, Montclair, CA, USA) as a positive control.

[2] = tested on: normal human renal epithelial cells HK2; test: MTT normal cytotoxicity, HK2; assay type: cell-based; settings: Epithelial cell, mean ± SD, n = 3
Protocol: as §1

[3] = biological target: T1, WRN protein (Homo sapiens, UniProt Q14191); test: Cellular thermal shift assay (CETSA); assay type: binding; settings: PC3 cells, 100 nM, 2 h
T1 construct: endogenous in cells; host or cells: PC3
T1 sequence (Q14191 whole entry): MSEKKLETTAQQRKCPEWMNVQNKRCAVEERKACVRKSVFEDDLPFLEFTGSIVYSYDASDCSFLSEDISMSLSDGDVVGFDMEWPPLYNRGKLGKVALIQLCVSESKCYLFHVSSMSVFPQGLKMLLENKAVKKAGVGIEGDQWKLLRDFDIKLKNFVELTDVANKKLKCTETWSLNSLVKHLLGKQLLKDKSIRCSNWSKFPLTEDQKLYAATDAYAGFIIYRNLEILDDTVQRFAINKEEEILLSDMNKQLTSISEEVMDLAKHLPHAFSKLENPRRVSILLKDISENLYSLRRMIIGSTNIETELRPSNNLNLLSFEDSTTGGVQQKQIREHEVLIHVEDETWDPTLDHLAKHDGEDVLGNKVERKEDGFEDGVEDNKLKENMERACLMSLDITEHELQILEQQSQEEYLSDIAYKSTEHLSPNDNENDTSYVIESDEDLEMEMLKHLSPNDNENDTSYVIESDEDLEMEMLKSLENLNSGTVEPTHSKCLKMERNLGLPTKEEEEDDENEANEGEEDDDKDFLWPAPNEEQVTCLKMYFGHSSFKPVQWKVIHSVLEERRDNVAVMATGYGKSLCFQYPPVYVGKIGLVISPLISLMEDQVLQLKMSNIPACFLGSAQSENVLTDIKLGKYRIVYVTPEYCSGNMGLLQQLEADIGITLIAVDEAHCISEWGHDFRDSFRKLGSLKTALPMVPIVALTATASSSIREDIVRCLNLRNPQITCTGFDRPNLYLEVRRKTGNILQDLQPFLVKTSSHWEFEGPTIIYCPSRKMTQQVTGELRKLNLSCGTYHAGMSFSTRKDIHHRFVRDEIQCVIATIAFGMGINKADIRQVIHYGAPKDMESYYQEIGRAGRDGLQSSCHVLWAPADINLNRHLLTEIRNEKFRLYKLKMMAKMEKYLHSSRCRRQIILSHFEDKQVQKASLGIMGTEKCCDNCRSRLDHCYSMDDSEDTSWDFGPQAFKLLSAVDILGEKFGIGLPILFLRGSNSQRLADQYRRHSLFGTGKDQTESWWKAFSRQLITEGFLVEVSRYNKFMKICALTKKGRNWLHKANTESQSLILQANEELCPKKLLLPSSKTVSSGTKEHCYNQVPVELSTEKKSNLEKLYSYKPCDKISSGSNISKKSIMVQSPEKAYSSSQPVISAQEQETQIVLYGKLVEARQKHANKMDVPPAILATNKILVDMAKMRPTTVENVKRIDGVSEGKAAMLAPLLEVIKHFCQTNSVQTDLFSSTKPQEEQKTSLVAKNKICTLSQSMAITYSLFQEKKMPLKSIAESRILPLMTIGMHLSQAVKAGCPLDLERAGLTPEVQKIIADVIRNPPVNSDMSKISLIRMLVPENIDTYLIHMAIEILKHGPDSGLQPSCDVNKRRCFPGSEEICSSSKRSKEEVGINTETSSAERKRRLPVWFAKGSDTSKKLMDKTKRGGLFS
Protocol: PC3 cells were cultured and treated with 100 nM kzl052 for 2 h. The cells were collected into 1.5 mL EP tubes, treated with a metal bath at different temperatures (43 °C, 46 °C, 49 °C, 52 °C, and 55 °C) for 3 min, and balanced for 2 min at room temperature. The supernatant was collected by centrifugation after three cycles of liquid nitrogen in a 37 °C water bath, and then a SDS-loading buffer and denatured protein was added at 100 °C for 10 min. Finally, the content of the binding of the WRN protein was detected by Western blot.

[4] = tested on: LNCaP cells; test: MTT assay, LNCaP cell growth; assay type: cell-based; settings: Homo sapiens, 24 h (Figure 1 legend), 48 h (method)
Protocol: as §1

[5] = tested on: WRN-silenced PC3 cells; test: MTT assay in WRN-silenced PC3 cells; assay type: cell-based, human; settings: shWRN lentiviral transfection
Protocol: Human prostate cancer cell lines PC3 and LNCaP cells were stored in the Biology Laboratory of the Natural Products Research Center of Guizhou Province (Guiyang, China). Cells were cultured in DMEM supplemented with 10% fetal bovine serum (BI, Nahariya, Israel) and 1% penicillin and streptomycin (Solarbio, Beijing, China) and incubated at 37 °C under 5% CO2, 95% air, and 95% humidity. The pLV-shWRN-GFP-Puro and blank control plasmids were constructed by Chongqing UNIBIO Biotechnology Co., Ltd. (Chongqing, China). The transfection steps were based on previous published studies. The inhibitory effect of the WRN protein in PC3 cells was detected by a Western blot assay.
Cell suspensions were prepared in a logarithmic growth phase and seeded in 96-well plates at a density of 5000–8000 cells/well for 12 h and treated with different concentrations of kzl052 for 48 h. A 5 mg/mL MTT dye solution (Solarbio, Beijing, China) was added to all cells at 37 °C for 4 h. Then DMSO was added after removing the supernatant, and the crystals were completely dissolved by shaking at 37 °C for 15 min. The absorbance was measured at 490 nm by a microplate reader (Gene, HongKong, China). […]

[6] = tested on: PC3 cells; test: PC3 xenograft in BALB/c-null mice; assay type: in vivo; settings: 5 mg/kg intraperitoneally
Protocol: Male BALB/c-null mice (4 weeks and 18–20 g) were purchased from SiPeiFu Biotechnology Co., Ltd. (Beijing, China). All SPF-grade mice were fed in the animal room with an IVC system barrier environment (Natural Products Research Center of Guizhou Province). The ambient temperature was maintained at 22 ± 2 °C, the humidity was 40–60%, and the light–dark cycle was maintained for 12 h to simulate the normal external environment. The mice took food and water autonomously. Xenografts were performed by subcutaneously implanting PC3 cells (1 × 10^7/0.1 mL). When the tumor size was 100 mm^3, the mice were randomly divided into 2 groups (N = 8). One group was intraperitoneally injected with kzl052 (5 mg/kg), and the other group was given the same dose of the solvent. The body weight and tumor volume was recorded every two days. The tumor volume (mm^3) = 0.5 × long diameter × short diameter^2. At the end of the experiment, the mice were euthanized and dissected to measure the weight of tumor tissue, heart, liver, spleen, kidney, and lung.
The tumor tissue sections were placed sequentially in xylene I/10 min; xylene II/10 min; absolute ethanol I/5 min; absolute ethanol II/5 min; 95% ethanol/5 min; 90% ethanol/5 min; 80% ethanol/5 min; and 70% ethanol/5 min. Then the sections were treated in a hematoxylin staining solution (Solarbio, Beijing, China) for 3–5 min. The slices were treated by 1% hydrochloric acid alcohol for 5–10 s. The sections were treated in an eosin staining solution (Solarbio, Beijing, China) for 1–3 min. Next, the slices were dehydrated with 95% ethanol/5 min; anhydrous ethanol I/5 min; anhydrous ethanol/5 min; xylene I/5 min; and xylene II/5 min. Finally, the sections were sealed with a neutral gum (Solarbio, Beijing, China). The H&E staining results were photographed and analyzed under light microscopes (Leica, Wetzlar, Germany).
The tissue sections were roasted, dewaxed, hydrated, antigen repaired, blocked, and incubated with a polyclonal antibody (PNCA, RPA, Mre11, PARP1, and RB1 at a 1:50 dilution, HUBIO, and γ-H2A.X at a 1:50 dilution, CST) at 4 °C overnight. The HRP-labeled IgG secondary antibody (1:1000 dilution, HUBIO, Hangzhou, China) was incubated at 37 °C for 2 h, stained with DAB, and then stained with hematoxylin (Solarbio, Beijing, China) and sealed with a neutral rubber (Solarbio, Beijing, China). It was also observed and photographed under a microscope (Leica, Wetzlar, Germany). The immunohistochemical results were statistically analyzed using image Pro plus (V6.0) software.

[7] = tested on: LNCaP cells; test: Bright field and Hoechst staining, LNCaP; assay type: cell-based, human; settings: 24 h
Protocol: (§2) PC3 and LNCaP cells were cultured and treated with different concentrations of kzl052 for 24 h and then 5 μg/mL of a Hoechst 33258 dye solution (Solarbio, Beijing, China) was added for 5–10 min after PBS washing. The fluorescence microscope (Leica, Wetzlar, Germany) was used for photo observation.

[8] = tested on: PC3 cells; test: γ-H2A.X immunofluorescence (DNA damage), PC3; assay type: cell-based, human; settings: 100 nM, 24 h
Protocol: (§3) Cell slides were prepared and treated with 100nM kzl052 for 24 h. A 4% PFA was added for fixation after PBS washing, and then the cells were treated with Triton X-100 (Sigma-Aldrich, Saint Louis, MO, USA) for 30 min. The cells were blocked with 4% BSA for 2 h and incubated overnight at 4 °C with a γ-H2A.X primary antibody (1:1000, CST, Boston, MA, USA). A fluorescent secondary antibody (1:50; CST) was added and incubated in the dark for 2 h. After washing with PBS, a 10 μg/mL DAPI staining solution was added and treated the cells for 5–10 min. The expression and localization of γ-H2A.X was detected by inverted fluorescence microscopy (Leica, Wetzlar, Germany).

[9] = tested on: PC3 cells; test: MTT assay, PC3 cell growth; assay type: cell-based; settings: Homo sapiens, PC-3, 24 h (Figure 1 legend), 48 h (method)
Protocol: as §1

[10] = biological target: T2, WRN helicase (Homo sapiens, UniProt Q14191); test: WRN-unwinding assay (WRN enzyme activity test); assay type: biochemical; settings: Figure S2
T2 construct: ICE Bioscience Inc (Beijing, China)
T2 sequence (Q14191 whole entry): as above
Protocol: NSC617145 in WRN FI as s ay KZL -05 2 in WR N FI as s ay
Figure S2.The results of WRN-unwinding assay. WRN enzyme activity test were
performed by ICE Bioscience Inc (Beijing, China).

[11] = tested on: PARP1, Bax, PLK1, RB1, Bcl-2, SRC, PTEN, PCNA, RPA, FEN1, Mre11; test: Western blot of apoptosis, RB signal and replication fork proteins; assay type: cell-based
Protocol: The cells treated by kzl052 were collected, washed by precooled PBS, and removed by centrifugation at 1000 g/5 min. A RIPA lysate (Solarbio, Beijing, China) was added for 30 min on ice. The protein concentration was determined by a BCA kit (Solarbio, Beijing, China) and denatured at 105 °C. The target proteins were isolated by SDS-PAGE gel electrophoresis and transferred to the PVDF membrane (Millipore, Bedford, MA, USA). A 5% BSA was added to block for 2 h. Primary antibodies (PNCA, RPA, FEN1, Mre11, PARP1, Bax, Bcl-2, PLK1, RB1, SRC, and PTEN; 1:1000 dilution, HUBIO, Hangzhou, China) were added and incubated at 4 °C overnight. The next day, the PVDF membrane with target proteins were washed by TBST and incubated with an HRP-labeled IgG secondary antibody (1:100,000 dilution, HUBIO, Hangzhou, China) for 2 h. After TBST washed, the target proteins were isolated and analyzed by a chemiluminescence instrument (BioRad, Hercules, CA, USA).

[12] = tested on: WRN protein; test: Western blot of WRN protein level; assay type: cell-based; settings: 24 h
[13] = tested on: LNCaP cells; test: γ-H2A.X immunofluorescence (DNA damage), LNCaP; assay type: cell-based, human; settings: 100 nM, 24 h
Protocol: as §3

[14] = tested on: PC3 cells; test: Bright field and Hoechst staining, PC3; assay type: cell-based, human; settings: 24 h
Protocol: as §2

[15] = tested on: BALB/c mice; test: Acute toxicity assay in BALB/c mice; assay type: in vivo; settings: 24 h; for Death Number / Survival Number: 4 mice
Protocol: (§4) The toxicity of kzl052 in vivo was tested by an acute toxicity analysis in male BALB/c mice. A total of 20 mice were divided into 5 groups randomly. Each group was given a one-time treatment of kzl052 concentrations at 0 mg/kg, 50 mg/kg, 100 mg/kg, 200 mg/kg, and 500 mg/kg. The survival or death status of mice within 24 h was observed and recorded. The survival and death rate of mice were calculated.

[16] = Acute toxicity assay in BALB/c mice; assay type: in vivo; settings: mouse, in vivo; within 24 h, male BALB/c mice, one-time treatment
Protocol: as §4

## CC(=O)O[C@@]12CO[C@@H]1C[C@H](O)[C@@]1(C)C(=O)[C@H](O)C3=C(C)[C@@H](OC(=O)[C@H](O)[C@@H](NC(=O)OC(C)(C)C)c4ccccc4)C[C@@](O)([C@@H](OC(=O)c4ccccc4)[C@H]21)C3(C)C [Docetaxel, reference compound]
[1]
  IC50: 410 ± 110 nM
[2]
  IC50: 110 ± 10 nM

## CC(C)(CN1C(=O)C(Cl)=C(Cl)C1=O)CN1C(=O)C(Cl)=C(Cl)C1=O [NSC 617145]
[1]
  IC50: 1810 ± 270 nM

## Cc1ccc2nc(C(F)(F)F)nc(N(C)c3ccc(OC(F)F)cc3)c2c1 [kzl052]
[3]
  binding to WRN protein (CETSA): bound to the WRN protein
[4]
  IC50: 110 ± 10 nM
[5]
  sensitivity of WRN-silenced PC3 cells: more insensitive
[6]
  H&E staining compared with the control group: no significant difference
  effects on mouse body weight and internal organ morphology: minimal effects
[6]; PC3 xenograft
  growth of PC3 cells in vivo (tumor volume, tumor quality): significantly inhibited
[6]; γ-H2A.X, PARP1, RB1, PCNA, RPA, Mre11
  DNA replication fork complexes in tumor tissues (immunohistochemistry): promoted the instability of DNA replication fork complexes
[7]
  cell death, LNCaP: promoted PC3 and LNCaP cell death
[8]
  γ-H2A.X staining, PC3: significantly increased
[9]
  IC50: 390 ± 10 nM
[10]
  effect on activity of WRN helicase: did not affect the activity of WRN helicase
[11]
  expression of PARP1, Bax, PLK1, and RB1: significantly up-regulated
  expression of PCNA, RPA, and FEN1: significantly inhibited
  protein level of Mre11: up-regulated
  protein levels of Bcl-2, SRC, and PTEN: inhibited
[12]
  WRN protein expression: significantly inhibited
[1]
  IC50: 3120 ± 90 nM
[2]
  IC50: 920 ± 240 nM
[13]
  γ-H2A.X staining, LNCaP: significantly increased
[14]
  cell death, PC3: promoted PC3 and LNCaP cell death
[15]; 50 mg/kg
  Mortality Rate: 0%
  Survival Rate: 100%
  Death Number: 0
  Survival Number: 4
[15]; 100 mg/kg
  Mortality Rate: 0%
  Survival Rate: 100%
  Death Number: 0
  Survival Number: 4
[15]; 200 mg/kg
  Mortality Rate: 0%
  Survival Rate: 100%
  Death Number: 0
  Survival Number: 4
[15]; 500 mg/kg
  Mortality Rate: 75%
  Survival Rate: 25%
  Death Number: 3
  Survival Number: 1
[16]
  LD50 at 24 h: 200 to 500 mg/kg
